According to patent US11267825B2 (AICURIS GMBH & CO. KG, priority 2017, dated 2022):

What was measured:
[1] = target: HBV core protein (UniProt P03146); assay type: biochemical; conditions: read-out: Assembly Activity (IC50); BODIPY-FL labelled core protein, assembly started with NaCl, read after 6 min
Outline: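 Compounds tested at 8 concentrations in 0.5-log steps from 100, 31.6 or 10 μM against 1.0–2.0 μM BODIPY-FL-labelled Cys150 core dimers (residues 1–149), 50 mM HEPES pH 7.5. NaCl ([…] final) triggered assembly; quenching read at 6 min, 477/525 nm, with 2.5 M and 0 M NaCl as controls; EC50 by nonlinear fit.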

[2] = test system: HBV; test: Determination of HBV DNA from the supernatants of HepAD38 cells (anti-HBV activity); assay type: cell-based, hepatitis B virus; conditions: Hepatitis B virus, 144 h; HBV DNA in HepAD38 supernatant at day 6; read-out: Cell Activity (EC50)
Outline: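 EC50 values were obtained by non-linear regression of HBV DNA copy numbers measured by qPCR against pCH-9/3091 plasmid standards. The DNA came from filtered supernatants collected on day 6. Before that, tetracycline-withdrawn HepAD38 cells had been exposed to serial half-log compound dilutions, with tetracycline-treated cells as the non-producing control.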

HBV core protein, sequence (P03146 whole entry, looked up, the tested form may be a part): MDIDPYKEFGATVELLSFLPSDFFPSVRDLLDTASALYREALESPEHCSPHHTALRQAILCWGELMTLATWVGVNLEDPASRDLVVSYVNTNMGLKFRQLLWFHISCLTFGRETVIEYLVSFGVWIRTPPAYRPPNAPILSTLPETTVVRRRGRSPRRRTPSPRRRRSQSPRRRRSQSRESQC

Row | SMILES | IC50 [1] [µM] | EC50 [2] [µM]
1 | CC(=O)N1CCOC(CNc2nc3c(s2)CN(C(=O)c2cc4ccccc4[nH]2)CC3)C1 (stereo not shown) [Example 242, 1-[2-({[5-(1H-indole-2-carbonyl)-4H,5H,6H,7H-[1,3]thiazolo[5,4-c]pyridin-2-yl]amino}methyl)morpholin-4-yl]ethan-1-one] | 5 to 10 | < 1
2 | CC(O)c1cccc2[nH]c(C(=O)N3CCc4nc(NCC5CCOC5)sc4C3)cc12 (stereo not shown) [Example 244, 1-[2-(2-{[(oxolan-3-yl)methyl]amino}-4H,5H,6H,7H-[1,3]thiazolo[5,4-c]pyridine-5-carbonyl)-1H-indol-4-yl]ethan-1-ol] | < 100 | < 1
3 | O=C(c1cc2c(CO)cccc2[nH]1)N1CCc2nc(NCC3CCOC3)sc2C1 (stereo not shown) [Example 245, [2-(2-{[(oxolan-3-yl)methyl]amino}-4H,5H,6H,7H-[1,3]thiazolo[5,4-c]pyridine-5-carbonyl)-1H-indol-4-yl]methanol] | < 100 | < 1
4 | COC1(CNc2nc3c(s2)CN(C(=O)c2cc4ccccc4[nH]2)CC3)CCOC1 (stereo not shown) [Example 246, 5-(1H-indole-2-carbonyl)-N-[(3-methoxyoxolan-3-yl)methyl]-4H,5H,6H,7H-[1,3]thiazolo[5,4-c]pyridin-2-amine] | < 5 | < 1
5 | CC(Nc1nc2c(s1)CN(C(=O)c1cc3ccccc3[nH]1)CC2)C1CCOC1 (stereo not shown) [Example 247, 5-(1H-indole-2-carbonyl)-N-[1-(oxolan-3-yl)ethyl]-4H,5H,6H,7H-[1,3]thiazolo[5,4-c]pyridin-2-amine] | < 5 | < 1
6 | CCc1cc(F)cc2[nH]c(C(=O)N3CCc4nc(NCC5(CO)CC5)sc4C3)cc12 [Example 248, [1-({[5-(4-ethyl-6-fluoro-1H-indole-2-carbonyl)-4H,5H,6H,7H-[1,3]thiazolo[5,4-c]pyridin-2-yl]amino}methyl)cyclopropyl]methanol] | < 5 | < 1
7 | CC(O)c1cc(F)cc2[nH]c(C(=O)N3CCc4nc(NCC5(CO)CC5)sc4C3)cc12 (stereo not shown) [Example 249, 1-{6-fluoro-2-[2-({[1-(hydroxymethyl)cyclopropyl]methyl}amino)-4H,5H,6H,7H-[1,3]thiazolo[5,4-c]pyridine-5-carbonyl]-1H-indol-4-yl}ethan-1-ol] | 5 to 10 | < 1
8 | CC(O)c1cccc2[nH]c(C(=O)N3CCc4nc(NCC5(CO)CC5)sc4C3)cc12 (stereo not shown) [Example 250, 1-{2-[2-({[1-(hydroxymethyl)cyclopropyl]methyl}amino)-4H,5H,6H,7H-[1,3]thiazolo[5,4-c]pyridine-5-carbonyl]-1H-indol-4-yl}ethan-1-ol] | < 100 | < 1
9 | O=C(c1cc2c(Cl)c(F)ccc2[nH]1)N1CCc2nc(NCC3(CO)CC3)sc2C1 [Example 251, [1-({[5-(4-chloro-5-fluoro-1H-indole-2-carbonyl)-4H,5H,6H,7H-[1,3]thiazolo[5,4-c]pyridin-2-yl]amino}methyl)cyclopropyl]methanol] | < 5 | < 1
10 | O=C(c1cc2c(F)c(F)ccc2[nH]1)N1CCc2nc(NCC3(CO)CC3)sc2C1 [Example 252, [1-({[5-(4,5-difluoro-1H-indole-2-carbonyl)-4H,5H,6H,7H-[1,3]thiazolo[5,4-c]pyridin-2-yl]amino}methyl)cyclopropyl]methanol] | < 5 | < 1
11 | O=C(c1cc2ccccc2[nH]1)N1CCc2nc(NCC3(O)CCOC3)sc2C1 (stereo not shown) [Example 253, 3-({[5-(1H-indole-2-carbonyl)-4H,5H,6H,7H-[1,3]thiazolo[5,4-c]pyridin-2-yl]amino}methyl)oxolan-3-ol] | < 5 | < 1
12 | CCc1ccc(F)c2[nH]c(C(=O)N3CCc4nc(NCC5CCOC5)sc4C3)cc12 (stereo not shown) [Example 254, 5-(4-ethyl-7-fluoro-1H-indole-2-carbonyl)-N-[(oxolan-3-yl)methyl]-4H,5H,6H,7H-[1,3]thiazolo[5,4-c]pyridin-2-amine] | < 5 | < 1
13 | CCc1cc(F)cc2[nH]c(C(=O)N3CCc4nc(NCC5CCOC5)sc4C3)cc12 (stereo not shown) [Example 255, 5-(4-ethyl-6-fluoro-1H-indole-2-carbonyl)-N-[(oxolan-3-yl)methyl]-4H,5H,6H,7H-[1,3]thiazolo[5,4-c]pyridin-2-amine] | < 5 | < 1
14 | CC(O)c1cc(F)cc2[nH]c(C(=O)N3CCc4nc(NCC5CCOC5)sc4C3)cc12 (stereo not shown) [Example 258, 1-[6-fluoro-2-(2-{[(oxolan-3-yl)methyl]amino}-4H,5H,6H,7H-[1,3]thiazolo[5,4-c]pyridine-5-carbonyl)-1H-indol-4-yl]ethan-1-ol] | < 100 | 1 to 10
15 | O=C(c1cc2ccccc2[nH]1)N1CCc2nc(NCC3CNCCO3)sc2C1 (stereo not shown) [Example 260, 5-(1H-indole-2-carbonyl)-N—[(morpholin-2-yl)methyl]-4H,5H,6H,7H-[1,3]thiazolo[5,4-c]pyridin-2-amine] | < 5 | 1 to 10
16 | CC(C)(CC(=O)Nc1nc2c(s1)CN(C(=O)c1cc3ccccc3[nH]1)CC2)C1CC1 [Example 261, 3-cyclopropyl-N-[5-(1H-indole-2-carbonyl)-4H,5H,6H,7H-[1,3]thiazolo[5,4-c]pyridin-2-yl]-3-methylbutanamide] | < 100 | < 1
17 | CCC(C)(C)CC(=O)Nc1nc2c(s1)CN(C(=O)c1cc3ccccc3[nH]1)CC2 [Example 262, N-[5-(1H-indole-2-carbonyl)-4H,5H,6H,7H-[1,3]thiazolo[5,4-c]pyridin-2-yl]-3,3-dimethylpentanamide] | < 100 | < 1
18 | CC(C)(C)CC(=O)Nc1nc2c(s1)CN(C(=O)c1cc3c(Cl)cccc3[nH]1)CC2 [Example 263, N-[5-(4-chloro-1H-indole-2-carbonyl)-4H,5H,6H,7H-[1,3]thiazolo[5,4-c]pyridin-2-yl]-3,3-dimethylbutanamide] | 5 to 10 | < 1
19 | CC(C)(C)NC(=O)Nc1nc2c(s1)CN(C(=O)c1cc3ccccc3[nH]1)CC2 [Example 264, 3-tert-butyl-1-[5-(1H-indole-2-carbonyl)-4H,5H,6H,7H-[1,3]thiazolo[5,4-c]pyridin-2-yl]urea] | 5 to 10 | < 1
20 | CC(C)(C)NC(=O)Nc1nc2c(s1)CN(C(=O)c1cc3c(Cl)cc(F)cc3[nH]1)CC2 [Example 265, 3-tert-butyl-1-[5-(4-chloro-6-fluoro-1H-indole-2-carbonyl)-4H,5H,6H,7H-[1,3]thiazolo[5,4-c]pyridin-2-yl]urea] | < 100 | < 1
21 | CNC(=O)Nc1nc2c(s1)CN(C(=O)c1cc3c(Cl)cc(F)cc3[nH]1)CC2 [Example 266, 1-[5-(4-chloro-6-fluoro-1H-indole-2-carbonyl)-4H,5H,6H,7H-[1,3]thiazolo[5,4-c]pyridin-2-yl]-3-methylurea] | < 5 | < 1
22 | CC1(C)CC1C(=O)Nc1nc2c(s1)CN(C(=O)c1cc3ccccc3[nH]1)CC2 (stereo not shown) [Example 267, N-[5-(1H-indole-2-carbonyl)-4H,5H,6H,7H-[1,3]thiazolo[5,4-c]pyridin-2-yl]-2,2-dimethylcyclopropane-1-carboxamide] | 5 to 10 | < 1
23 | CC1CC1C(=O)Nc1nc2c(s1)CN(C(=O)c1cc3ccccc3[nH]1)CC2 (stereo not shown) [Example 268, N-[5-(1H-indole-2-carbonyl)-4H,5H,6H,7H-[1,3]thiazolo[5,4-c]pyridin-2-yl]-2-methylcyclopropane-1-carboxamide] | 5 to 10 | < 1
24 | O=C(c1cc2ccccc2[nH]1)N1CCc2nc(N[C@@H]3CCCC[C@H]3O)sc2C1 [Example 269, (1R,2R)-2-{[5-(1H-indole-2-carbonyl)-4H,5H,6H,7H-[1,3]thiazolo[5,4-c]pyridin-2-yl]amino}cyclohexan-1-ol] | < 5 | < 1
25 | O=C(c1cc2ccccc2[nH]1)N1CCc2nc(NCC3CCCOC3)sc2C1 (stereo not shown) [Example 270, 5-(1H-indole-2-carbonyl)-N-[(oxan-3-yl)methyl]-4H,5H,6H,7H-[1,3]thiazolo[5,4-c]pyridin-2-amine] | < 5 | < 1
26 | Cc1cc(F)cc2[nH]c(C(=O)N3CCc4nc(NCC5(CO)CC5)sc4C3)cc12 [Example 271, [1-({[5-(6-fluoro-4-methyl-1H-indole-2-carbonyl)-4H,5H,6H,7H-[1,3]thiazolo[5,4-c]pyridin-2-yl]amino}methyl)cyclopropyl]methanol] | < 5 | < 1
27 | CCc1cccc2[nH]c(C(=O)N3CCc4nc(NCC5(CO)CC5)sc4C3)cc12 [Example 272, [1-({[5-(4-ethyl-1H-indole-2-carbonyl)-4H,5H,6H,7H-[1,3]thiazolo[5,4-c]pyridin-2-yl]amino}methyl)cyclopropyl]methanol] | < 5 | < 1
28 | CC(C)(C)OC(=O)N1CCOC(CNc2nc3c(s2)CN(C(=O)c2cc4ccccc4[nH]2)CC3)C1 (stereo not shown) [Example 273, tert-butyl 2-({[5-(1H-indole-2-carbonyl)-4H,5H,6H,7H-[1,3]thiazolo[5,4-c]pyridin-2-yl]amino}methyl)morpholine-4-carboxylate] | 5 to 10 | < 1
29 | CC1(C(=O)Nc2nc3c(s2)CN(C(=O)c2cc4ccccc4[nH]2)CC3)CC1 [Example 274, N-[5-(1H-indole-2-carbonyl)-4H,5H,6H,7H-[1,3]thiazolo[5,4-c]pyridin-2-yl]-1-methylcyclopropane-1-carboxamide] | < 5 | < 1
